Measurements: patent publication US10464925B2, “Methods to induce targeted protein degradation through bifunctional molecules” (Dana-Farber Cancer Institute, Inc., priority 2015, dated 2019)
Where two headings read alike, the source gives them in different places.

Assays:
BRDT = BRDT (Homo sapiens, UniProt Q58F21); experiment: BRDT IC50 (Table 4); format: binding; conditions: read-out: IC50 (nM) BRDT
BRD4 [1] = target: T1, BRD4 (Homo sapiens, UniProt O60885); experiment: BRD4 Cell Western (BRD4 levels in 293T cells, LiCOR); format: cell-based; parameters: BRD4 levels in the cells after the dBET treatment; endogenous in cells; conditions: HEK-293T; read-out: BRD4 max degradation(%) Cell Western
[2] = target: T2, BRD4 adjoined to nanoluciferase (Nluc) (Homo sapiens, UniProt O60885+Q96SW2); experiment: BRD4 Dual Luciferase Assay; format: cell-based; conditions: for Emax: BRD4 remaining at Emax, read-out: BRD4− Emax (percent remaining);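 as to all read-outs here: transduced reporter cells exposed to compound for 4 h, then Nluc and Fluc luminescence read, each normalized to DMSO controls and expressed as Nluc/Fluc ratio per well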
T2 construct: expressed in transfected cells

MOLT4 = experiment: Cell viability, ATPlite 48 hours, MOLT4; format: cell-based; conditions: Homo sapiens, MOLT-4; MOLT4 cells
NGP = experiment: Cell viability, ATPlite 72 hours; format: cell-based; conditions: NGP cells, Table 4; read-out: IC50 (nM) NGP
DND41 = experiment: Cell viability, ATPlite 48 hours, DND41; format: cell-based; conditions: DND41 cells
797 = experiment: Cell viability, 797 cells (Table 4); format: cell-based; conditions: read-out: IC50 (nM) 797
CUTL1 = experiment: Cell viability, ATPlite 48 hours, CUTLL1; format: cell-based; conditions: CUTL1 cells
MV4; 11 = experiment: Cell viability, ATPlite 48 hours, MV4-11; format: cell-based; conditions: Homo sapiens, 11 cells
BRD4 [3] = target: T1, BRD4; experiment: BRD4 AlphaScreen; format: binding; parameters: […]; His tag (inferred from capture on Ni-coated acceptor beads)
CRBN = target: T3, CRBN (Homo sapiens, UniProt Q96SW2); experiment: Intracellular CRBN Engagement Assay (dFKBP7 rescue); format: cell-based; conditions: competition with 80 nM dFKBP7, 3 hours; read-out: FKBP7 rescue (EC50)
T3 construct: endogenous in cells

CRBN-DDB1 = target: T4, CRBN-DDB1 (Homo sapiens, UniProt Q96SW2); experiment: CRBN-DDB1 Ligand-Displacement AlphaScreen Assay (thalidomide competition); format: binding; conditions: biotin-thalidomide competition; read-out: THAL ALPHA (IC50);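 also: streptavidin donor and nickel chelate acceptor bead proximity signal after 30 min incubation, normalized with no-protein background as 0% and DMSO wells as 100% activity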
T4 construct: 6xHis (given for the complex); made in house; host or cells: Sf9 cells (Invitrogen), pFastBac

[4] = 4 hours, read-out: max degradation (dual luc)
[5] = read-out: BRD4 max degradation(%) Dual Luciferase

SMILES: Cc1sc2c(c1C)C(c1ccc(Cl)cc1)=N[C@@H](CC(=O)NCCCCCCNC(=O)COc1cccc3c1C(=O)N(C1CCC(=O)NC1=O)C3=O)c1nnc(C)n1-2 (stereo partly shown) [dBET5]
- IC50 (BRDT): 110 nM
- Dmax (BRD4 [1]): 66%
- Dmax [2, 4]: 53%
- Emax [2]: 44.7%
- Dmax [2, 5]: 53%

SMILES: CC[C@@H]1C(=O)N(C)c2cnc(Nc3ccc(C(=O)NCCCCCCNC(=O)COc4cccc5c4C(=O)N(C4CCC(=O)NC4=O)C5=O)cc3OC)nc2N1C1CCCC1 (stereo partly shown) [dBET7]
- IC50 (MOLT4): 46.6 nM
- IC50 (BRDT): 549 nM
- IC50 (NGP): 131 nM
- IC50 (DND41): 31.4 nM
- Dmax (BRD4 [1]): 63%
- IC50 797: 16 nM
- IC50 (CUTL1): 29.2 nM
- Conc@Emax [2]: 0.5 µM
- Dmax [2, 4]: 54.1%
- Emax [2]: 43.7%
- Dmax [2, 5]: 54%

SMILES: CC[C@@H]1C(=O)N(C)c2cnc(Nc3ccc(C(=O)NCCCCCCCCNC(=O)COc4cccc5c4C(=O)N(C4CCC(=O)NC4=O)C5=O)cc3OC)nc2N1C1CCCC1 (stereo partly shown) [dBET8]
- IC50 (MOLT4): 88.5 nM
- IC50 (BRDT): 820 nM
- IC50 (NGP): 153 nM
- IC50 (DND41): 47.2 nM
- IC50 (CUTL1): 42 nM

SMILES: Cc1sc2c(c1C)C(c1ccc(Cl)cc1)=N[C@@H](CC(=O)NCCCOCCOCCOCCCNC(=O)COc1cccc3c1C(=O)N(C1CCC(=O)NC1=O)C3=O)c1nnc(C)n1-2 (stereo partly shown) [dBET9]
- IC50 (BRDT): 52 nM
- IC50 (NGP): 8420 nM
- IC50 (DND41): 1520 nM
- Dmax (BRD4 [1]): 41%
- IC50 797: 296 nM
- IC50 (MV4; 11): 28 nM
- IC50 (CUTL1): 1550 nM
- Dmax [2, 4]: 24.8%
- Emax [2]: 71%
- Dmax [2, 5]: 25%

SMILES: Cc1noc(C)c1-c1ccc(-c2nc3cnccn3c2NCC(=O)NCCCCNC(=O)COc2cccc3c2C(=O)N(C2CCC(=O)NC2=O)C3=O)cc1 (stereo not shown) [dBET13]
- IC50 (BRD4 [3]; read-out: BRD4 Alpha (IC50)): 6930 nM
- IC50 (BRD4 [3]; read-out: IC50 (nM) BRD4): 6930 nM
- EC50 (CRBN): 220 µM
- IC50 (CRBN-DDB1): 10.7 nM

SMILES: Cc1noc(C)c1-c1ccc(-c2nc3cnccn3c2NCC(=O)NCCCOCCOCCOCCCNC(=O)COc2cccc3c2C(=O)N(C2CCC(=O)NC2=O)C3=O)cc1 (stereo not shown) [dBET14]
- IC50 (BRD4 [3]; read-out: BRD4 Alpha (IC50)): 8830 nM
- IC50 (BRD4 [3]; read-out: IC50 (nM) BRD4): 8830 nM
- EC50 (CRBN): 227 µM
- IC50 (CRBN-DDB1): 12.4 nM

SMILES: Cc1sc2c(c1C)C(c1ccc(C#N)cc1)=N[C@@H](CC(=O)NCCCCNC(=O)COc1cccc3c1C(=O)N(C1CCC(=O)NC1=O)C3=O)c1nnc(C)n1-2 (stereo partly shown) [dBET17]
- IC50 (MOLT4): 13500 nM
- IC50 (BRDT): 217 nM
- IC50 (NGP): > 20000 nM
- IC50 (DND41): 17300 nM
- IC50 797: 5020 nM
- IC50 (CUTL1): > 20000 nM

SMILES: Cc1sc2c(c1C)C(c1ccc(Cl)cc1)=N[C@@H](CC(=O)NCCCN1CCN(C(=O)CCCCCNC(=O)COc3cccc4c3C(=O)N(C3CCC(=O)NC3=O)C4=O)CC1)c1nnc(C)n1-2 (stereo partly shown) [dBET18]
- IC50 (MOLT4): 1920 nM
- IC50 (BRDT): 28 nM
- IC50 (NGP): 4960 nM
- IC50 (DND41): 1790 nM
- IC50 (BRD4 [3]; read-out: BRD4 Alpha (IC50)): 11 nM
- IC50 (BRD4 [3]; read-out: IC50 (nM) BRD4): 11 nM
- Dmax (BRD4 [1]): 57%
- IC50 797: 1360 nM
- EC50 (CRBN): 749 µM
- IC50 (CUTL1): 2840 nM
- Dmax [2, 4]: 36.5%
- Emax [2]: 65.4%
- Dmax [2, 5]: 37%
- IC50 (CRBN-DDB1): 1.57 nM

SMILES: Cc1c(CC#N)sc2c1C(c1ccc(Cl)cc1)=N[C@@H](CC(=O)NCCCCNC(=O)COc1cccc3c1C(=O)N(C1CCC(=O)NC1=O)C3=O)c1nnc(C)n1-2 (stereo partly shown) [dBET19]
- IC50 (BRDT): 1130 nM
- IC50 (BRD4 [3]; read-out: BRD4 Alpha (IC50)): 212 nM
- IC50 (BRD4 [3]; read-out: IC50 (nM) BRD4): 212 nM
- IC50 797: > 20000 nM
- EC50 (CRBN): 4330 µM
- Dmax [2, 4]: -1.3%
- Emax [2]: 93.3%
- Dmax [2, 5]: > 5%
- IC50 (CRBN-DDB1): 3.62 nM

SMILES: Cc1sc2c(c1C)C(c1ccc(Cl)cc1)=N[C@@H](CC(=O)NCCCCOc1cccc3c1C(=O)N(C1CCC(=O)NC1=O)C3=O)c1nnc(C)n1-2 (stereo partly shown) [dBET28]
- EC50 (CRBN): 7.73 µM
- Dmax [2, 4]: < 5%
- Emax [2]: 91.2%
- Dmax [2, 5]: > 5%
- IC50 (CRBN-DDB1): 17.1 nM

SMILES: Cc1c(C(=O)NCCCCNC(=O)COc2cccc3c2C(=O)N(C2CCC(=O)NC2=O)C3=O)sc2c1C(c1ccc(Cl)cc1)=N[C@@H](CC(=O)NCCCN1CCN(C)CC1)c1nnc(C)n1-2 (stereo partly shown) [dBET30]
- EC50 (CRBN): 3140 µM
- Conc@Emax [2]: 50 µM
- Dmax [2, 4]: 78.5%
- Emax [2]: 26.2%
- Dmax [2, 5]: 79%
- IC50 (CRBN-DDB1): 26.5 nM

SMILES: Cc1cnc(Nc2ccc(N3CCN(C(=O)CCC(=O)NCCCCNC(=O)COc4cccc5c4C(=O)N(C4CCC(=O)NC4=O)C5=O)CC3)cc2)nc1Nc1cccc(S(=O)(=O)NC(C)(C)C)c1 (stereo not shown) [dBET32]
- IC50 (BRD4 [3]; read-out: BRD4 Alpha (IC50)): 3300 nM
- IC50 (BRD4 [3]; read-out: IC50 (nM) BRD4): 3300 nM
- IC50 797: 5730 nM
- Dmax [2, 4]: 50%
- Dmax [2, 5]: 50%

SMILES: Cc1cnc(Nc2ccc(N3CCN(C(=O)CCC(=O)NCCCCCCCCNC(=O)COc4cccc5c4C(=O)N(C4CCC(=O)NC4=O)C5=O)CC3)cc2)nc1Nc1cccc(S(=O)(=O)NC(C)(C)C)c1 (stereo not shown) [dBET33]
- IC50 (BRD4 [3]; read-out: BRD4 Alpha (IC50)): 4990 nM
- IC50 (BRD4 [3]; read-out: IC50 (nM) BRD4): 4990 nM
- IC50 797: 4000 nM
- Dmax [2, 4]: 9.96%
- Dmax [2, 5]: < 10%

SMILES: Cc1cnc(Nc2ccc(N3CCN(C(=O)CCC(=O)NCCCOCCOCCOCCCNC(=O)COc4cccc5c4C(=O)N(C4CCC(=O)NC4=O)C5=O)CC3)cc2)nc1Nc1cccc(S(=O)(=O)NC(C)(C)C)c1 (stereo not shown) [dBET34]
- IC50 (BRD4 [3]; read-out: BRD4 Alpha (IC50)): 1540 nM
- IC50 (BRD4 [3]; read-out: IC50 (nM) BRD4): 1540 nM
- IC50 797: 3920 nM
- Dmax [2, 4]: 24%
- Dmax [2, 5]: 24%
